From BigSolDB 2.1

**Q.** What does the source list for `Nc1ccc(Oc2ccc(N)cc2)cc1`?
**A.** solubility (mole fraction) (in DMAc, 293.15 K): 0.14; solubility (mole fraction) (in DMAc, 298.15 K): 0.144; solubility (mole fraction) (in DMAc, 303.15 K): 0.148; solubility (mole fraction) (in DMAc, 308.15 K): 0.152; solubility (mole fraction) (in DMAc, 313.15 K): 0.157; solubility (mole fraction) (in DMAc, 318.15 K): 0.164; solubility (mole fraction) (in DMAc, 323.15 K): 0.166; solubility (mole fraction) (in DMAc, 328.15 K): 0.177; solubility (mole fraction) (in DMAc, 333.15 K): 0.184; solubility (mole fraction) (in DMF, 293.15 K): 0.113; solubility (mole fraction) (in DMF, 298.15 K): 0.117; solubility (mole fraction) (in DMF, 303.15 K): 0.12; solubility (mole fraction) (in DMF, 308.15 K): 0.126; solubility (mole fraction) (in DMF, 313.15 K): 0.132; solubility (mole fraction) (in DMF, 318.15 K): 0.139; solubility (mole fraction) (in DMF, 323.15 K): 0.146; solubility (mole fraction) (in DMF, 328.15 K): 0.152; solubility (mole fraction) (in DMF, 333.15 K): 0.161; solubility (mole fraction) (in DMSO, 293.15 K): 0.149; solubility (mole fraction) (in DMSO, 298.15 K): 0.153; solubility (mole fraction) (in DMSO, 303.15 K): 0.159; solubility (mole fraction) (in DMSO, 308.15 K): 0.165; solubility (mole fraction) (in DMSO, 313.15 K): 0.171; solubility (mole fraction) (in DMSO, 318.15 K): 0.181; solubility (mole fraction) (in DMSO, 323.15 K): 0.185; solubility (mole fraction) (in DMSO, 328.15 K): 0.192; solubility (mole fraction) (in DMSO, 333.15 K): 0.201
